We go through two molecules from PMC3556092, “Cellular responses induced by Cu(II) quinolinonato complexes in human tumor and hepatic cells” (Chemistry Central Journal, 2012).

Experiment [1] relates to glucocorticoid receptor (GR) transcriptional activity. Conditions: 24 h; complexes 10 nM – 5 μM; DEX 10 pM – 100 nM.
For experiment [2], the system named is A2780cis cisplatin-resistant ovarian carcinoma cells. Description: In vitro cytotoxicity, MTT assay, A2780cis. Format: cell-based, human. The following applies: 24 h, MTT; read-out: IC50 ± SD, A2780cis. Here is the method:
Figure S5. […] The cells were plated at 96-well dishes and cultured according manufacturer instructions. The tested compounds were applied to the cells for 24 h in concentrations ranging from 0.01 to 50 µM. The tested compounds were applied to the cells for 24 h. The cytotoxicity was assessed by the MTT test, measurements were performed in triplicate, and each cytotoxicity experiment was repeated three times. The data are expressed as IC50 ± SD (μM).
(Formazan colour is commonly taken as a measure of viable cells.)

Experiment [3] has as its system A549 lung carcinoma cells. Description: In vitro cytotoxicity, MTT assay, A549. The class given is cell-based, human. The following applies: 24 h, read-out: IC50 ± SD, A549. The protocol: Figure S1. […] The cells were plated at 96-well dishes and cultured according manufacturer instructions. The tested compounds were applied to the cells for 24 h in concentrations ranging from 0.01 to 50 µM. The tested compounds were applied to the cells for 24 h. The cytotoxicity was assessed by the MTT test, measurements were performed in triplicate, and each cytotoxicity experiment was repeated three times. The data are expressed as IC50 ± SD (μM).

Experiment [4] concerns LNCaP androgen-sensitive prostate adenocarcinoma cells. The experiment in a line: In vitro cytotoxicity, MTT assay, LNCaP. The class given is cell-based, human. Conditions: 24 h, read-out: IC50 ± SD, LNCaP. Here is the method:
Figure S6. […] The cells were plated at 96-well dishes and cultured according manufacturer instructions. The tested compounds were applied to the cells for 24 h in concentrations ranging from 0.01 to 50 µM. The tested compounds were applied to the cells for 24 h. The cytotoxicity was assessed by the MTT test, measurements were performed in triplicate, and each cytotoxicity experiment was repeated three times. The data are expressed as IC50 ± SD (μM).

For experiment [5], the system named is HeLa cervix epitheloid carcinoma cells. The experiment in a line: In vitro cytotoxicity, MTT assay, HeLa. Format: cell-based, human. The following applies: 24 h, read-out: IC50 ± SD, HeLa. The protocol: Figure S2. […] The cells were plated at 96-well dishes and cultured according manufacturer instructions. The tested compounds were applied to the cells for 24 h in concentrations ranging from 0.01 to 50 µM. The tested compounds were applied to the cells for 24 h. The cytotoxicity was assessed by the MTT test, measurements were performed in triplicate, and each cytotoxicity experiment was repeated three times. The data are expressed as IC50 ± SD (μM).

Experiment [6] deals with A2780 ovarian carcinoma cells. The experiment in a line: In vitro cytotoxicity, MTT assay, A2780. The following applies: 24 h, read-out: IC50 ± SD, A2780. Format: cell-based, human. Here is the method: Figure S4. […] The cells were plated at 96-well dishes and cultured according manufacturer instructions. The tested compounds were applied to the cells for 24 h in concentrations ranging from 0.01 to 50 µM. The tested compounds were applied to the cells for 24 h. The cytotoxicity was assessed by the MTT test, measurements were performed in triplicate, and each cytotoxicity experiment was repeated three times. The data are expressed as IC50 ± SD (μM).

Experiment [7] relates to THP-1 monocytic leukemia cells. Further details: method as in PMID 15139770. The following applies: cited from earlier work.
In experiment [8] the test system is G361 malignant melanoma cells. The experiment in a line: In vitro cytotoxicity, MTT assay, G361. Format: cell-based, human. The following applies: 24 h, read-out: IC50 ± SD, G361. The protocol:
Figure S3. […] The cells were plated at 96-well dishes and cultured according manufacturer instructions. The tested compounds were applied to the cells for 24 h in concentrations ranging from 0.01 to 50 µM. The tested compounds were applied to the cells for 24 h. The cytotoxicity was assessed by the MTT test, measurements were performed in triplicate, and each cytotoxicity experiment was repeated three times. The data are expressed as IC50 ± SD (μM).

On to `C[C@@H]1C[C@H]2[C@@H]3CCC4=CC(=O)C=C[C@]4(C)[C@@]3(F)[C@@H](O)C[C@]2(C)[C@@]1(O)C(=O)CO` [DEX, dexamethasone], for which the “luciferase activity in AZ-GR cells” value in experiment [1] is “strongly, dose-dependently induced”.
For the molecule `N.N.[Cl][Pt][Cl]` [cisplatin, reference compound], the IC50 (in general, the concentration that gives 50% inhibition) in experiment [2] was 27 ± 4.6 µM; in experiment [3] it was 25.8 ± 7.1 µM; in experiment [4], 3.8 ± 1.5 µM; in experiment [5], 10 ± 2.6 µM; in experiment [6] it was 12 ± 0.8 µM; in experiment [7] it was 2 µM. Also, the IC50 in experiment [8] came out at 3.4 ± 0.1 µM.
